ChEMBL document CHEMBL5303764, “Data for DCP probe BI-3812” (2023)
Activity calls are given as the source filed them.

Experiments:
[1] = molecular target: 5-hydroxytryptamine receptor 3A (Homo sapiens) (UniProt P46098); experiment: 5HT3/H Eurofins SafetyScreen44 (BI); conditions: Compound concentration 10.0 uM
[2] = molecular target: Muscarinic acetylcholine receptor M5 (Homo sapiens) (UniProt P08912); conditions: Compound concentration 10.0 uM
[3] = molecular target: Beta-1 adrenergic receptor (Homo sapiens) (UniProt P08588); conditions: Compound concentration 10.0 uM
[4] = molecular target: Sodium-dependent serotonin transporter (Homo sapiens) (UniProt P31645); experiment: SLC6A4/H Eurofins SafetyScreen44 (BI); conditions: filed as antagonist, Compound concentration 10.0 uM
[5] = molecular target: Sigma intracellular receptor 2 (Homo sapiens) (UniProt Q5BJF2); conditions: Compound concentration 10.0 uM
[6] = molecular target: Proto-oncogene tyrosine-protein kinase receptor Ret (Homo sapiens) (UniProt P07949); experiment: RET Invitrogen Lab (UK) kinase screen (BI); conditions: Compound concentration 1.0 uM
[7] = molecular target: Prostaglandin G/H synthase 2 (Homo sapiens) (UniProt P35354); experiment: COX-2 Eurofins SafetyScreen44 (BI); conditions: Compound concentration 10.0 uM
[8] = molecular target: 5-hydroxytryptamine receptor 5A (Homo sapiens) (UniProt P47898); conditions: Compound concentration 10.0 uM
[9] = molecular target: T1, B-cell lymphoma 6 protein (Homo sapiens, UniProt P41182); experiment: BCL6:BCOR ULight TR-FRET
[10] = molecular target: D(1A) dopamine receptor (Homo sapiens) (UniProt P21728); experiment: D1/H Eurofins SafetyScreen44 (BI); conditions: filed as antagonist, Compound concentration 10.0 uM
[11] = molecular target: D(1B) dopamine receptor (Homo sapiens) (UniProt P21918); conditions: Compound concentration 10.0 uM
[12] = molecular target: T1, B-cell lymphoma 6 protein; experiment: SPR (BCL6), Ontario institute for cancer research
[13] = molecular target: Sodium-dependent noradrenaline transporter (Homo sapiens) (UniProt P23975); experiment: NEUP/H Eurofins SafetyScreen44 (BI); conditions: Compound concentration 10.0 uM
[14] = molecular target: Sodium-dependent dopamine transporter (Homo sapiens) (UniProt Q01959); conditions: Compound concentration 10.0 uM
[15] = molecular target: Delta-type opioid receptor (Homo sapiens) (UniProt P41143); conditions: Compound concentration 10.0 uM
[16] = molecular target: Rho-associated protein kinase 2 (Homo sapiens) (UniProt O75116); experiment: ROCK2 Invitrogen Lab (UK) kinase screen (BI); conditions: Compound concentration 1.0 uM
[17] = molecular target: Ephrin type-A receptor 2 (Homo sapiens) (UniProt P29317); experiment: EPHA2 Invitrogen Lab (UK) kinase screen (BI); conditions: Compound concentration 1.0 uM
[18] = molecular target: Histamine H2 receptor (Homo sapiens) (UniProt P25021); conditions: Compound concentration 10.0 uM
[19] = molecular target: Phosphatidylinositol 4,5-bisphosphate 3-kinase catalytic subunit gamma isoform (Homo sapiens) (UniProt P48736); experiment: PIK3CG Invitrogen Lab (UK) kinase screen (BI); conditions: Compound concentration 1.0 uM
[20] = molecular target: Ribosomal protein S6 kinase beta-1 (Homo sapiens) (UniProt P23443); experiment: RPS6KB1 Invitrogen Lab (UK) kinase screen (BI); conditions: Compound concentration 1.0 uM
[21] = molecular target: 5-hydroxytryptamine receptor 2B (Homo sapiens) (UniProt P41595); conditions: Compound concentration 10.0 uM
[22] = molecular target: Sodium-dependent serotonin transporter (Homo sapiens) (UniProt P31645); conditions: Compound concentration 10.0 uM
[23] = molecular target: Serine/threonine-protein kinase Nek1 (Homo sapiens) (UniProt Q96PY6); experiment: NEK1 Invitrogen Lab (UK) kinase screen (BI); conditions: Compound concentration 1.0 uM
[24] = molecular target: Alpha-1D adrenergic receptor (Homo sapiens) (UniProt P25100); conditions: Compound concentration 10.0 uM
[25] = molecular target: Kappa-type opioid receptor (Homo sapiens) (UniProt P41145); conditions: Compound concentration 10.0 uM
[26] = molecular target: Sigma non-opioid intracellular receptor 1 (Homo sapiens) (UniProt Q99720); conditions: Compound concentration 10.0 uM
[27] = molecular target: Alpha-2A adrenergic receptor (Homo sapiens) (UniProt P08913); experiment: ALPHA2A/HU Eurofins SafetyScreen44 (BI); conditions: Compound concentration 10.0 uM
[28] = molecular target: Androgen receptor (Homo sapiens) (UniProt P10275); experiment: ANDROGEN/H Eurofins SafetyScreen44 (BI); conditions: Compound concentration 10.0 uM
[29] = molecular target: Beta-3 adrenergic receptor (Homo sapiens) (UniProt P13945); conditions: Compound concentration 10.0 uM
[30] = molecular target: Ribosomal protein S6 kinase alpha-3 (Homo sapiens) (UniProt P51812); experiment: RPS6KA3 Invitrogen Lab (UK) kinase screen (BI); conditions: Compound concentration 1.0 uM
[31] = molecular target: Cannabinoid receptor 1 (Homo sapiens) (UniProt P21554); experiment: CB1(HU)_AGON Eurofins SafetyScreen44 (BI); conditions: filed as agonist, Compound concentration 10.0 uM
[32] = molecular target: D(4) dopamine receptor (Homo sapiens) (UniProt P21917); conditions: Compound concentration 10.0 uM
[33] = molecular target: Tyrosine-protein kinase ABL1 (Homo sapiens) (UniProt P00519); experiment: ABL1 Invitrogen Lab (UK) kinase screen (BI); conditions: Compound concentration 1.0 uM
[34] = molecular target: Inhibitor of nuclear factor kappa-B kinase subunit beta (Homo sapiens) (UniProt O14920); experiment: IKBKB Invitrogen Lab (UK) kinase screen (BI); conditions: Compound concentration 1.0 uM
[35] = molecular target: Muscarinic acetylcholine receptor M1 (Homo sapiens) (UniProt P11229); experiment: M1/H Eurofins SafetyScreen44 (BI); conditions: Compound concentration 10.0 uM
[36] = molecular target: AMP-activated protein kinase (AMPK) alpha-1/beta-1/gamma-1 (Homo sapiens) (UniProt P54619+Q9Y478+Q13131); experiment: AMPK A1B1G1 Invitrogen Lab (UK) kinase screen (BI); assay type: protein-complex assay; conditions: Compound concentration 1.0 uM
[37] = molecular target: D(3) dopamine receptor (Homo sapiens) (UniProt P35462); conditions: Compound concentration 10.0 uM
[38] = molecular target: Focal adhesion kinase 1 (Homo sapiens) (UniProt Q05397); experiment: PTK2 Invitrogen Lab (UK) kinase screen (BI); conditions: Compound concentration 1.0 uM
[39] = molecular target: Alpha-2A adrenergic receptor (Homo sapiens) (UniProt P08913); conditions: Compound concentration 10.0 uM
[40] = molecular target: Mu-type opioid receptor (Homo sapiens) (UniProt P35372); experiment: MU/H Eurofins SafetyScreen44 (BI); conditions: Compound concentration 10.0 uM
[41] = molecular target: Tyrosine-protein kinase Lyn (Homo sapiens) (UniProt P07948); experiment: LYN A Invitrogen Lab (UK) kinase screen (BI); conditions: Compound concentration 1.0 uM
[42] = molecular target: 5-hydroxytryptamine receptor 2A (Homo sapiens) (UniProt P28223); experiment: 5HT2AH_AGON Eurofins SafetyScreen44 (BI); conditions: filed as agonist, Compound concentration 10.0 uM
[43] = molecular target: Mitogen-activated protein kinase 1 (Homo sapiens) (UniProt P28482); experiment: MAPK1 Invitrogen Lab (UK) kinase screen (BI); conditions: Compound concentration 1.0 uM
[44] = molecular target: Vasopressin V1a receptor (Homo sapiens) (UniProt P37288); experiment: V1A/HUM Eurofins SafetyScreen44 (BI); conditions: Compound concentration 10.0 uM
[45] = molecular target: Alpha-2C adrenergic receptor (Homo sapiens) (UniProt P18825); conditions: Compound concentration 10.0 uM

Chain of Alpha-2A adrenergic receptor (Homo sapiens) (P08913 whole entry): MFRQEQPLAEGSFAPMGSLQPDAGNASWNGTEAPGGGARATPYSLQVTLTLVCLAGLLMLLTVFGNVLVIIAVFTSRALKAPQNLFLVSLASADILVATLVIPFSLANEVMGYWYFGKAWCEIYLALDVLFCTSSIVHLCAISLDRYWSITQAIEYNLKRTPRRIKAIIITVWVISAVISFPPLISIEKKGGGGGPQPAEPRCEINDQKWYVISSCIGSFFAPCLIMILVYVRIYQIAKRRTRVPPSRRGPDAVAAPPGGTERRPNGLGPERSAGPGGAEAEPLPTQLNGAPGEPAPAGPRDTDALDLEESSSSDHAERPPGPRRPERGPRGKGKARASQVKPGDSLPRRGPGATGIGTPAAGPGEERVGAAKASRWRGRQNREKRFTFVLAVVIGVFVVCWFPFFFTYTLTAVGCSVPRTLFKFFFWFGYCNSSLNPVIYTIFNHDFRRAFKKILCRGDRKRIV
Chain of Sodium-dependent serotonin transporter (Homo sapiens) (P31645 whole entry, looked up): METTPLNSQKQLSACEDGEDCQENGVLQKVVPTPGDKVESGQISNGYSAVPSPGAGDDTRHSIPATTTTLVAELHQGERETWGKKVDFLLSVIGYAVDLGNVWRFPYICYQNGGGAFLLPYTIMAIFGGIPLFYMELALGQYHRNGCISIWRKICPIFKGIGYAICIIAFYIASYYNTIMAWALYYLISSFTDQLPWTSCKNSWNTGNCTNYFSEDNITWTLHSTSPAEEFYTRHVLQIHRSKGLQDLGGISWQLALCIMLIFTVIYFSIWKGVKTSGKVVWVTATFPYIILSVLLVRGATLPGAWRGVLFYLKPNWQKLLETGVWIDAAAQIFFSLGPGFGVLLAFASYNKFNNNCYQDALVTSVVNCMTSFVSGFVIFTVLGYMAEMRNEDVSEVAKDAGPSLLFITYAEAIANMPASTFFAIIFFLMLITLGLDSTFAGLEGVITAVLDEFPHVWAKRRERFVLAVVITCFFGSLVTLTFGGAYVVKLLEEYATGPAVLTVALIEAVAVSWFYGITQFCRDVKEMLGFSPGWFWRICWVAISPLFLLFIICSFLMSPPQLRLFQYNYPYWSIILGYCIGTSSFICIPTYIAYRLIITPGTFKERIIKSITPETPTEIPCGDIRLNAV
Chain of Muscarinic acetylcholine receptor M5 (Homo sapiens) (P08912 whole entry): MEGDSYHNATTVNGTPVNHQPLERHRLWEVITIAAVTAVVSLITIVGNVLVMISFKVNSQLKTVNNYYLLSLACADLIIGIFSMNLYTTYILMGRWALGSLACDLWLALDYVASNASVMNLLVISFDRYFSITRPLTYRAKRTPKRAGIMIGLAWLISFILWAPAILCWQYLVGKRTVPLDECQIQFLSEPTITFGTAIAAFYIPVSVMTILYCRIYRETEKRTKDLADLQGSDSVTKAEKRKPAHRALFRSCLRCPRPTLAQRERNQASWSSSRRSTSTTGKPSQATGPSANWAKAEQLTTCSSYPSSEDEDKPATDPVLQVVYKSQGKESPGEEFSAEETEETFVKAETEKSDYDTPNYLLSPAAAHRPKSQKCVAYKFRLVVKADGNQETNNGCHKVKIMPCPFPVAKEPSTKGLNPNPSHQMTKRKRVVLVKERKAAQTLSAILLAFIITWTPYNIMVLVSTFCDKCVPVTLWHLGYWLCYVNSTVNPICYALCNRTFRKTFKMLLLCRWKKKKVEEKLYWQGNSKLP
Chain of Delta-type opioid receptor (Homo sapiens) (P41143 whole entry): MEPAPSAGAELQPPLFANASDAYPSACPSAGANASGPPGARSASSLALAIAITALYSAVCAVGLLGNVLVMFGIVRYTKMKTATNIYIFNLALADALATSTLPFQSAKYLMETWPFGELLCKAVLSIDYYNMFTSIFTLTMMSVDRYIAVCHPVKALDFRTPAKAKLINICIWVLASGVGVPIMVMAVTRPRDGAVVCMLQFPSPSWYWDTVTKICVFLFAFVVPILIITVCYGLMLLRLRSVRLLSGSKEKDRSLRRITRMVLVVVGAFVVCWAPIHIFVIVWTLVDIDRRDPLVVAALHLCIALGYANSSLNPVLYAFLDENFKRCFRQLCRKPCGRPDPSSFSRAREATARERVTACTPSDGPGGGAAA
Chain of Alpha-1D adrenergic receptor (Homo sapiens) (P25100 whole entry): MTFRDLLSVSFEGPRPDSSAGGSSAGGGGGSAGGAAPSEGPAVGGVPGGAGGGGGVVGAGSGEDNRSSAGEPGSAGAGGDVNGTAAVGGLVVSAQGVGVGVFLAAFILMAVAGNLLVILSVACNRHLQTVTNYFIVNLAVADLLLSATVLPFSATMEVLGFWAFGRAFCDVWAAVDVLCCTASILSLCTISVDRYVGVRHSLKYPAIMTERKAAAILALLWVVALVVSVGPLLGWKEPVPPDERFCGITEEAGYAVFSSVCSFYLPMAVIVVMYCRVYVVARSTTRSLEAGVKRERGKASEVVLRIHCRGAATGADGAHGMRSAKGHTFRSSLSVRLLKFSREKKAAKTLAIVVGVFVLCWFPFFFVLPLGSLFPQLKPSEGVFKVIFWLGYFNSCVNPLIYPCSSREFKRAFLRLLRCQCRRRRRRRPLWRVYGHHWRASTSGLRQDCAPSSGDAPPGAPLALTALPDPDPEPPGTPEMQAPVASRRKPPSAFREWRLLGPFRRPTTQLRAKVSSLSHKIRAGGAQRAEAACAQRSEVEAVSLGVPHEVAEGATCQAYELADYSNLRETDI
Chain of Sodium-dependent dopamine transporter (Homo sapiens) (Q01959 whole entry): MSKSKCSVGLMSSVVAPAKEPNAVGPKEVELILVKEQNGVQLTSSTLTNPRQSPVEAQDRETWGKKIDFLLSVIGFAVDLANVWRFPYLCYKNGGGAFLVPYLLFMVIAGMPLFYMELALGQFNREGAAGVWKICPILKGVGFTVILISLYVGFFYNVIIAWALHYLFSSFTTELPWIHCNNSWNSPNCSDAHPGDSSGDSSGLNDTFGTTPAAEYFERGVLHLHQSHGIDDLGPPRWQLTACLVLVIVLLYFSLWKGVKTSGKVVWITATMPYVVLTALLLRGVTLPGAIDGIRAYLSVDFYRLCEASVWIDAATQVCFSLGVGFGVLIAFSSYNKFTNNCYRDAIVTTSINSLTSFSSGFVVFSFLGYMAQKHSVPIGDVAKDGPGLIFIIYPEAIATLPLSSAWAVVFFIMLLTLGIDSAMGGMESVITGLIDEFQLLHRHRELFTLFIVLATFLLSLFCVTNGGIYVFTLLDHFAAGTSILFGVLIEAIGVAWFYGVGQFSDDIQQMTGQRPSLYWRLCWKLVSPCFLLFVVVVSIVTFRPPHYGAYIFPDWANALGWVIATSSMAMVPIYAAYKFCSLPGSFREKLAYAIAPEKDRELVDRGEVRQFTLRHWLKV
Chain of Kappa-type opioid receptor (Homo sapiens) (P41145 whole entry): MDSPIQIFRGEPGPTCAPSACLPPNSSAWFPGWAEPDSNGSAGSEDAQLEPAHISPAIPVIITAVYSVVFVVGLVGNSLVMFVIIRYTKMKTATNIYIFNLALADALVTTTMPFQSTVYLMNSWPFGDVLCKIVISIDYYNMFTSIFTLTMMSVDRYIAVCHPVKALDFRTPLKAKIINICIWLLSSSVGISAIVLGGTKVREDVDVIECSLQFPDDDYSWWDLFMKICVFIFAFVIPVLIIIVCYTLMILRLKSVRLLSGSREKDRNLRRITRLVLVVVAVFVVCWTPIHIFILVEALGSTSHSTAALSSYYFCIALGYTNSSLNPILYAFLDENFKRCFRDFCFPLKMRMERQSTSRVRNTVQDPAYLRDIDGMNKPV
Chain of D(1B) dopamine receptor (Homo sapiens) (P21918 whole entry): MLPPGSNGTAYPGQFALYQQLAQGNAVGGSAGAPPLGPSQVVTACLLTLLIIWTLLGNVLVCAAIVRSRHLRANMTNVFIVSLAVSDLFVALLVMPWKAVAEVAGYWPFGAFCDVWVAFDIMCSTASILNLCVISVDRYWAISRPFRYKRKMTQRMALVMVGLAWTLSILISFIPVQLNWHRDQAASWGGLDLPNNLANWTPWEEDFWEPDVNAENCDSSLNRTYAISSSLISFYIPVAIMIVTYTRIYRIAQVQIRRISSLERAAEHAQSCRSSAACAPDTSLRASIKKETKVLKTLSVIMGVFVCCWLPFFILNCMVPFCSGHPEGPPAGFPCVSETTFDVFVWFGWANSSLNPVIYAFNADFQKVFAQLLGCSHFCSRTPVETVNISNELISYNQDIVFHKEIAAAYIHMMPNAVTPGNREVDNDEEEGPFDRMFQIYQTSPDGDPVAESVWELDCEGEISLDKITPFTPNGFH
Chain of 5-hydroxytryptamine receptor 5A (Homo sapiens) (P47898 whole entry): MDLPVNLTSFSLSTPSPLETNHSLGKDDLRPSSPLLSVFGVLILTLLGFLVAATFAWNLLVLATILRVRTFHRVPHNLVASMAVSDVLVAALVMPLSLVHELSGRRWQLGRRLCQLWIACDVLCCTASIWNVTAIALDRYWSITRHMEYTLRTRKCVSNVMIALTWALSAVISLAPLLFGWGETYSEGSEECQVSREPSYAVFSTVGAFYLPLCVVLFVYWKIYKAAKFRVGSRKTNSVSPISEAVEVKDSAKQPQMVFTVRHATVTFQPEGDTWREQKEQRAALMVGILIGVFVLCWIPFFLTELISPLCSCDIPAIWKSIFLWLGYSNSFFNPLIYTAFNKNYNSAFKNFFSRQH
Chain of 5-hydroxytryptamine receptor 2B (Homo sapiens) (P41595 whole entry): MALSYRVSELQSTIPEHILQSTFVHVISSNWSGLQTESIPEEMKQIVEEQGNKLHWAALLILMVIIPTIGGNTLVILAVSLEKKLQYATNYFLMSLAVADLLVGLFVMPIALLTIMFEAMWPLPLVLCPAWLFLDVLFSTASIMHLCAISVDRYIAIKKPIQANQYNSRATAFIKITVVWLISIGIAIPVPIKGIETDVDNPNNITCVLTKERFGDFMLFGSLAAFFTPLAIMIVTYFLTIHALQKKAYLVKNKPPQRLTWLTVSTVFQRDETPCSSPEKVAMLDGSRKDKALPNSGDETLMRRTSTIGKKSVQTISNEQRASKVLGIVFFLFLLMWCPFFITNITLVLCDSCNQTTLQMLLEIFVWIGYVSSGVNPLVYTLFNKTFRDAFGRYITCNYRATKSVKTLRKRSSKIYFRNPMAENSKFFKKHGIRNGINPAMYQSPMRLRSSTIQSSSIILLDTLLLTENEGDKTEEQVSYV

CNC(=O)COc1cc2cc(Nc3nc(N4CCC(C(=O)N(C)C)CC4)ncc3Cl)cc(OC)c2n(C)c1=O
inactive: residual activity [1] 95% | inhibition [2] -7.06% | inhibition [3] -5.19% | residual activity [4] 105% | inhibition [5] 38.2% | residual activity [6] 95% | residual activity [7] 74% | inhibition [8] 12.9% | residual activity [10] 100% | inhibition [11] 3.05% | residual activity [13] 99% | inhibition [14] 12.2% | inhibition [15] 17.6% | residual activity [16] 97% | residual activity [17] 99% | inhibition [18] 9.74% | residual activity [19] 98% | residual activity [20] 93% | inhibition [21] -2.05% | inhibition [22] 14.1% | residual activity [23] 98% | inhibition [24] 2.72% | inhibition [25] 15.4% | inhibition [26] 16.8% | residual activity [27] 98% | residual activity [28] 99% | inhibition [29] 4.51% | residual activity [30] 93% | residual activity [31] 123% | inhibition [32] 17.7% | residual activity [33] 93% | residual activity [34] 96% | residual activity [36] 98% | inhibition [37] 14.6% | residual activity [38] 90% | inhibition [39] 15.1% | residual activity [40] 95% | residual activity [41] 101% | residual activity [42] 119% | residual activity [43] 98% | residual activity [44] 101% | inhibition [45] 3.4%
active: IC50 [9] ≤ 3 nM | Kd [12] 2.57 nM | residual activity [35] 15%
